Where two headings read alike, the source gives them in different places.

Test [1] has as its target T1, KDM6A (UTX) (Homo sapiens, UniProt O15550). Put plainly: biochemical. The conditions noted are these: for inhibition at 1 µM: read-out: KDM6A (UTX) Inhibition (%) 1 (μM); for inhibition at 10 µM: read-out: KDM6A (UTX) Inhibition (%) 10 (μM).
Test [2] has as its system MDA-MB-231 (TNBC BCa). The experiment in a line: Cell viability assay (MTS), MDA-MB-231. The conditions noted are these: NI = no inhibition, read-out: Antiproliferative Activity IC50 (μM) MDA-MB-231. The class given is cell-based.
Test [3] has as its target T1, KDM6A (UTX). The conditions noted are these: for KDM6A (UTX) Inhibition (%) 1 (μM): compound at 1 μM; for KDM6A (UTX) Inhibition (%) 10 (μM): compound at 10 μM; for IC50 against KDM6A (in words): cell-free.
Test [4] deals with HP1-mediated heterochromatin gene repression at the CiA:Oct4 locus. Put plainly: HP1-recruitment assay (CiA:Oct4), % GFP (+) cells by flow cytometry. Format: cell-based, mouse. The conditions noted are these: 48 h, CIP-rapamycin HP1 recruitment. The source says: To elucidate the effect of DFP-based KDM inhibitors have on chromatin dynamics, we profiled them in an intracellular assay which measures heterochromatin formation speed. The chromatin assay (CiA) leverages chemical induced proximity (CTP) to recruit heterochromatin protein 1 (HP1) to a modified Oct4 locus. This reporter system inserts tandem arrays of Gal4 and zinc finger DNA binding domains in the promoter of one allele of Oct4, where the gene is replaced by a nuclear eGFP reporter. Protein fusions of Gal4-FKBP and FRRB—HP1 allow for direct chemical recruitment of HP1 to the CiA:Oct4 reporter locus upon addition of the chemical inducer of proximity (CIP)-rapamycin. After CIP-rapamycin addition, HIP1 is recruited to the reporter locus and brings histone methyltransferase enzymes to the chromatin reporter resulting in the repressive H3K9me3 mark being deposited. H3K9me3 deposition leads to heterochromatin formation and gene silencing (FIG. 7A). Others have shown that H3K4me3 marked nucleosomes impede H3K9 methyltransferases. Thus, we postulate that the active H3K4me3 mark mast be removed by KDM enzymes as part of the transformation from euchromatin to heterochromatin. Inhibition of KDMs, specifically those targeting H3K4me3, would result in a decrease in H3K9me3 accumulation, which would be measured in our assay as an increase in % GFP (+) cells.
To determine the effect of DFP-based KDM inhibitors on HP1-mediated gene repression, we treated CiA:Oct4 embryonic stem (ES) cells with doses of representative compounds ranging from […] for 48 h with and without CIP-rapamycin recruiting HP1 (FIG. 7B). […] Dose response curves of DFP derivatives abler 48 h with C) and without D) HP1 recruitment at 10000, 5000, 2500, 1000, 500, 250, and 0 nM concentrations. Flow cytometry was used to determine the % GFP (+) cells following treatment. n=6
The CiA:Oct4 recruitment system in mouse embryonic stem cells contains Gal4 and Zinc finger DNA binding arrays and a downstream nuclear eGFP gene in place of a single Oct4 allele as previously described. The CiA:Oct4 N118/N163 cell line containing viral integrations of N118 and N163 plasmids (N118-nLV EF-1α-Gal-FKBPx1-HA-PGK-Blast, N163-nLV EF-1α-HP1α (CS)-Frbx2(Frb+FrbWobb)-V5-PGK-Puro) was used for inhibition of HP1-mediated heterochromatin studies. All plasmids are freely available on addgene.
Day 0, CiA:Oct4 N118/163 cells were grown in ES media and seeded at a density of 10,000 cells per well (100.000 cells/ml) into gelatin coated 96 well plates. Day 1, culture media was aspirated and replaced with 100 μl ES media containing +/−6 nM rapamycin. 10 μM, 5 μM, 2.5 μM, 1 μM, 500 nM, and 250 nM concentrations of compound or DMSO were added using a TTP Labtech Mosquito HTS liquid handler. Days 2-4. fresh ES media+/−rapamycin and compound were added as in Day 1.
Day 3 and 5, cells were washed with PBS and trypsinized using 0.25% trypsin-EDTA. Trypsin was quenched with serum. Cells were resuspended by pipetting in preparation for flow cytometry analysis.
Flow cytometry data was acquired using the Intellicyt iQue Screener and analyzed with FlowJo software. Cell populations were gated based on forward and side scatter height. Single cell populations were gated using forward scatter area by forward scatter height. Autofluorescent cells were excluded and the remaining cells were gated into GFP (−) and GFP (+) populations based on DMSO control samples.

T1 sequence (O15550 whole entry): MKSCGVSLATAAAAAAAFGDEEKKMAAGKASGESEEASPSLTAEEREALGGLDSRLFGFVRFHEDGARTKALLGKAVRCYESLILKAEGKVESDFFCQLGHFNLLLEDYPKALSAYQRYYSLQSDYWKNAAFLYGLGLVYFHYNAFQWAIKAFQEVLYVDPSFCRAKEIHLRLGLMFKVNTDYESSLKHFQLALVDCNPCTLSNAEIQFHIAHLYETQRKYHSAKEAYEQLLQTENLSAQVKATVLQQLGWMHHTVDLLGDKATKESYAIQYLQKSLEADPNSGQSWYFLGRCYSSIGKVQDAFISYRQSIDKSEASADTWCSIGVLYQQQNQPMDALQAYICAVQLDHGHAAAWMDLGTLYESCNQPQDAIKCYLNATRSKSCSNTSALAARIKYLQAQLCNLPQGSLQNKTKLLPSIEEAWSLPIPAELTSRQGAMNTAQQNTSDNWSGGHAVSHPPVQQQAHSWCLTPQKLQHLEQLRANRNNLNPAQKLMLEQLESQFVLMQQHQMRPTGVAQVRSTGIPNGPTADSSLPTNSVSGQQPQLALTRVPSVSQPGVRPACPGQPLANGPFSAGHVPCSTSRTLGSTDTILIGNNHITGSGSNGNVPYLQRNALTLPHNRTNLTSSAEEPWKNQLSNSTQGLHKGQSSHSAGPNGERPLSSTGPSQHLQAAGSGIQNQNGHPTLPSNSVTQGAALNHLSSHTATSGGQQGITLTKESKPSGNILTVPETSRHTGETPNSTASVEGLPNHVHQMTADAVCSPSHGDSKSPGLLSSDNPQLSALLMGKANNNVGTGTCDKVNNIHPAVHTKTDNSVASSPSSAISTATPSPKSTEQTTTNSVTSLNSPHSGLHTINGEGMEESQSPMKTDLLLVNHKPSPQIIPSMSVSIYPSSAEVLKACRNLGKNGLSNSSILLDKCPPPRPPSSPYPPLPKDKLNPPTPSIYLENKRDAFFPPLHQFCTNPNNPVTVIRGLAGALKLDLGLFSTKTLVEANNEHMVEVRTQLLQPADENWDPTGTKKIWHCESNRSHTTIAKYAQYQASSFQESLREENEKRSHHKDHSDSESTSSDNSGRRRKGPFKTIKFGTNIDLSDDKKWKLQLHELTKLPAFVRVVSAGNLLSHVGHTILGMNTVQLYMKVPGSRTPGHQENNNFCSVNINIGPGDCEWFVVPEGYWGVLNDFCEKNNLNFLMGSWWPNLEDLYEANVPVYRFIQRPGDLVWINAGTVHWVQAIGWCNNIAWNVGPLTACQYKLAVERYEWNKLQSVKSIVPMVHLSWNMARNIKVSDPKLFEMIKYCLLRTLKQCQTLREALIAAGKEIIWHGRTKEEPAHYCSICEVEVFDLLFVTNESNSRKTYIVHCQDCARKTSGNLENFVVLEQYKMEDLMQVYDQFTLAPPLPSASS

`COc1ccccc1-c1cn(CCCCCn2ccc(=O)c(O)c2C)nn1` [Compound 2h, 3-Hydroxy-1-(5-(4-(2-methoxyphenyl)-1H-1,2,3-triazol-1-yl)pentyl)-2-methylpyridin-4(1H)-one]: in test [1], the inhibition at 1 µM was found to be 3% and the inhibition at 10 µM was determined as 99%.
`CC/C(=C(\c1ccccc1)c1ccc(OCCN(C)Cc2ccc(-c3cn(CCn4ccc(=O)c(O)c4C)nn3)cc2)cc1)c1ccccc1` [Compound 36a]: in test [2] (Homo sapiens, MDA-MB-231, 72 h), the IC50 turned out to be 1.6 µM. In test [1], the inhibition at 1 µM was determined as 9% and the inhibition at 10 µM came to 100%.
Consider `Cc1c(O)c(=O)ccn1CCCCCn1cc(-c2ccccc2C(F)(F)F)nn1` [Compound 2p, 3-Hydroxy-2-methyl-1-(5-(4-(2-(trifluoromethyl)phenyl)-1H-1,2,3-triazol-1-yl)pentyl)pyridin-4(1H)-one], for which, in test [1], the inhibition at 1 µM was determined as 15% and the inhibition at 10 µM was found to be 99%.
In the case of `Cc1c(O)c(=O)ccn1CCCCCn1ccc(=O)c(O)c1C` [Compound 3b], in test [3], the “KDM6A (UTX) Inhibition (%) 1 (μM)” value is given as 1% and the “KDM6A (UTX) Inhibition (%) 10 (μM)” value was found to be 99%.
Turning to `Cc1c(O)c(=O)ccn1CCCCCn1cc(-c2ccc(-c3ccncc3)cc2)nn1` [Compound 2t, 3-Hydroxy-2-methyl-1-(5-(4-(4-(pyridin-4-yl)phenyl)-1H-1,2,3-triazol-1-yl)pentyl)pyridin-4(1H)-one], in test [4], the “concentration at which maximum inhibition of heterochromatin formation / gene repression is reached” value came out at 10 µM and the “inhibition of heterochromatin formation (in words)” value (“inhibition … (in words)” for short) is recorded as “significantly inhibited”. Besides, in test [1], the inhibition at 1 µM was 8% and the inhibition at 10 µM is 99%.
For `Cc1c(O)c(=O)ccn1CCCCCCCn1ccc(=O)c(O)c1C` [Compound 3d], in test [3], the “KDM6A (UTX) Inhibition (%) 1 (μM)” value was 3% and the “KDM6A (UTX) Inhibition (%) 10 (μM)” value worked out at 100%.
For `Cc1c(O)c(=O)ccn1CCCCCCn1ccc(=O)c(O)c1C` [Compound 3c], in that order: 2% and 100%.
On to `Cc1c(O)c(=O)ccn1CCCCCn1cc(-c2ccc(N(C)C)cc2)nn1` [Compound 2r, 1-(5-(4-(4-(Dimethylamino)phenyl)-1H-1,2,3-triazol-1-yl)pentyl)-3-hydroxy-2-methylpyridin-4(11)-one], for which, in test [2] (72 h), the IC50 came to 12.5 µM.
Still for that read-out and setting: as for `COc1ccccc1-c1cn(CCCCn2ccc(=O)c(O)c2C)nn1` [Compound 2g, 3-Hydroxy-1-(4-(4-(2-methoxyphenyl)-1H-1,2,3-triazol-1-y)butyl)-2-methylpyridin-4(1H)-one], the figure is 9.6 µM.
Take `COc1cccc(-c2cn(CCCCCn3ccc(=O)c(O)c3C)nn2)c1` [Compound 2j, 3-Hydroxy-1-(5-(4-(3-methoxyphenyl)-1H-1,2,3-triazol-1-yl)pentyl)-2-methylpyridin-4(1H)-one]: the IC50 in test [2] (Homo sapiens, MDA-MB-231, 72 h) came out at 19.6 µM. For the same molecule, in test [4], the “increase in GFP expression” value is recorded as 20% and the “inhibition … (in words)” value is “significantly inhibited”. The “IC50 against KDM6A (in words)” value in test [3] is “low micromolar”. In test [1], the inhibition at 1 µM stood at 8% and the inhibition at 10 µM amounted to 100%.
As to `COc1ccc2cc(-c3cn(CCCCCCn4ccc(=O)c(O)c4C)nn3)ccc2c1` [Compound 2w, 3-Hydroxy-1-(6-(4-(6-methoxynaphthalen-2-yl)-1H-1,2,3-triazol-1-yl)hexyl)-2-methylpyridin-4(1H)-one], in test [4], the “concentration at which maximum inhibition of heterochromatin formation / gene repression is reached” value came out at 1 µM and the “inhibition … (in words)” value is recorded as “significantly inhibited”.
For `Cc1c(O)c(=O)ccn1CCCCn1ccc(=O)c(O)c1C` [Compound 3a], in test [3], the “KDM6A (UTX) Inhibition (%) 1 (μM)” value came out at 4% and the “KDM6A (UTX) Inhibition (%) 10 (μM)” value was determined as 100%.
Consider `Cc1c(O)c(=O)ccn1CCCCCCn1cc(-c2ccc(-c3ccccc3)cc2)nn1` [Compound 2v, 1-(6-(4-([1,1-Biphenyl]-4-yl)-1H-1,2,3-triazol-1-yl)hexyl)-3-hydroxy-2-methylpyridin-4(1H)-one], for which, in test [4], the “concentration at which maximum inhibition of heterochromatin formation / gene repression is reached” value was 1 µM and the “inhibition … (in words)” value is “significantly inhibited”.
In the case of `Cc1ccc(-c2cn(CCCCn3ccc(=O)c(O)c3C)nn2)cc1` [Compound 2e, 3-Hydroxy-2-methyl-1-(4-(4-(p-tolyl)-1H-1,2,3-triazol-1-yl)butyl)pyridin-4(1H)-one], in test [1], the inhibition at 1 µM was found to be 13% and the inhibition at 10 µM is 100%.
As for `Cc1c(O)c(=O)ccn1Cc1ccc(Cn2ccc(=O)c(O)c2C)cc1` [Compound 3f, 1,1′-(1,4-Phenylenebis(methylene))bis(3-hydroxy-2-methylpyridin-4(1H)-one)], in test [1], the inhibition at 1 µM was found to be 5% and the inhibition at 10 µM was 100%.
On to `COc1ccc(-c2cn(CCCCCn3ccc(=O)c(O)c3C)nn2)cc1` [Compound 2l, 3-Hydroxy-1-(5-(4-(4-methoxyphenyl)-1H-1,2,3-triazol-1-yl)pentyl)-2-methylpyridin-4(1H)-one], for which, in test [1], the inhibition at 1 µM was 4% and the inhibition at 10 µM stood at 100%.
In the case of `Cc1c(O)c(=O)ccn1CCCCCn1cc(-c2cccc(F)c2)nn1` [Compound 2n, 1-(5-(4-(3-Fluorophenyl)-1H-1,2,3-triazol-1-yl)pentyl)-3-hydroxy-2-methylpyridin-4(1H)-one], in test [1], the inhibition at 1 µM was found to be 5% and the inhibition at 10 µM turned out to be 100%.
In the case of `Cc1c(O)c(=O)ccn1CCCCCn1cc(-c2ccccc2F)nn1` [Compound 2m], the half-inhibitory concentration (IC50) in test [2] (72 h) was 18.3 µM. In test [3], the “KDM6A (UTX) Inhibition (%) 1 (μM)” value is 16% and the “KDM6A (UTX) Inhibition (%) 10 (μM)” value came to 100%.
For `Cc1c(O)c(=O)ccn1CCCCCn1cc(-c2ccccn2)nn1` [Compound 2s, 3-Hydroxy-2-methyl-1-(5-(4-(pyridin-2-yl)-1H-1,2,3-triazol-1-yl)pentyl)pyridin-4(1H)-one], in test [1], the inhibition at 1 µM came out at 15% and the inhibition at 10 µM stood at 99%.
With `Cc1c(O)c(=O)ccn1CCn1cc(-c2ccccc2)nn1` [Compound 1a], the “inhibition … (in words)” value in test [4] is given as “weak inhibitors”. In test [1], the inhibition at 1 µM came to 12% and the inhibition at 10 µM worked out at 96%.
Turning to `Cc1c(O)c(=O)ccn1C1CCC(CC2CCC(n3ccc(=O)c(O)c3C)CC2)CC1` (stereo not drawn) [Compound 3g, 1,1′-(Methylenebis(cyclohexane-4,1-diyl))bis(3-hydroxy-2-methylpyridin-4(1H)-one)], in test [4], the “concentration at which maximum inhibition of heterochromatin formation / gene repression is reached” value was 2.5 µM and the “inhibition … (in words)” value is “significantly inhibited”. Further, the “IC50 against KDM6A (in words)” value in test [3] is on record as “low micromolar”. In addition, in test [1], the inhibition at 1 µM amounted to 9% and the inhibition at 10 µM worked out at 100%.
`Cc1c(O)c(=O)ccn1CCCCCn1cc(-c2ccc(F)cc2)nn1` [Compound 2o, 1-(5-(4-(4-Fluorophenyl)-1H-1,2,3-triazol-1-yl)pentyl)-3-hydroxy-2-methylpyridin-4(1H)-one]: in test [1], the inhibition at 1 µM amounted to 10% and the inhibition at 10 µM worked out at 100%.

These data come from patent publication US20250268880A1, “3-(Hydroxy)-Pyridin-4(1H)-One Compounds and Methods of Making and Using the Same” (Georgia Tech Research Corporation, priority 2018, published 2025).
